Laboratory results reported in US9428506B2, “Substituted pyrido[3′,4′:4,5]pyrrolo[1,2,3-de]quinoxalines for the treatment of nervous system disorders” (INTRA-CELLULAR THERAPIES, INC., priority 2012, dated 2016).

What was measured:
SERT = SERT (Homo sapiens, UniProt P31645); assay: Receptor binding activity, SERT; conditions: binding to SERT, methods of WO/2009/145900
Protocol: (§1) Binding to 5HT2A, D2 and SERT is assessed, using the methods described in WO/2009/145900. The compounds of Examples 1 and 2 are found to have potent binding to 5-HT2A, SERT and D2, with affinity constants in the sub-micromolar range: […]

D2 = D2 (Homo sapiens, UniProt P14416); assay: Receptor binding activity, D2; conditions: binding to D2, methods of WO/2009/145900
Sequence of D2 (P14416 whole entry): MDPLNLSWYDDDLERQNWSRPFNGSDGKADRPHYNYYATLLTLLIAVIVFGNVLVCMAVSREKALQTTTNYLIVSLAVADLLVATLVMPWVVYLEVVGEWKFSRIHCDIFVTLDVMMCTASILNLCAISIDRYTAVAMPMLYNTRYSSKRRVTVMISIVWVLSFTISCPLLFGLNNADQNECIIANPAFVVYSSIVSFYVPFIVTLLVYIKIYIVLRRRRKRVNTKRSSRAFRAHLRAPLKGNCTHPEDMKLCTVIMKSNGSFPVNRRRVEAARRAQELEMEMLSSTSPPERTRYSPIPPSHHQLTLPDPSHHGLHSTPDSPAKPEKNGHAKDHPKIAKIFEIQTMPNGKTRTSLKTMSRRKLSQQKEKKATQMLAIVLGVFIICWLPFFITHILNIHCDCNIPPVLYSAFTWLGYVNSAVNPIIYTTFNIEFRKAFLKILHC
Protocol: as §1

5-HT2A = 5-HT2A (Homo sapiens, UniProt P28223); assay: Receptor binding activity, 5-HT2A; conditions: binding to 5-HT2A, methods of WO/2009/145900
Sequence of 5-HT2A (P28223 whole entry, species assumed): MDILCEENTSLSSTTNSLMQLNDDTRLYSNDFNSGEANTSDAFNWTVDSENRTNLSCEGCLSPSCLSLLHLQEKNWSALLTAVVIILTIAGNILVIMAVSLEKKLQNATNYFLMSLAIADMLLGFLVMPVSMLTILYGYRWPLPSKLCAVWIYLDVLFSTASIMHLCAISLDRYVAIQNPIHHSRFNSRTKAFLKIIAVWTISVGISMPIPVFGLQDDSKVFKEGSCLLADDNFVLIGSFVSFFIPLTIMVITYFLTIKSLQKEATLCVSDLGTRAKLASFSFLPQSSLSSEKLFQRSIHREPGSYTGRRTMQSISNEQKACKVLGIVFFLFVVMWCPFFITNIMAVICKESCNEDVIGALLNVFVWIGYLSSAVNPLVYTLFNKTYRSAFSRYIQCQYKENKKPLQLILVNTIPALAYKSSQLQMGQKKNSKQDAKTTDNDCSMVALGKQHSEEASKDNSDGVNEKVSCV
Protocol: as §1

Sequence of SERT (P31645 whole entry, species assumed): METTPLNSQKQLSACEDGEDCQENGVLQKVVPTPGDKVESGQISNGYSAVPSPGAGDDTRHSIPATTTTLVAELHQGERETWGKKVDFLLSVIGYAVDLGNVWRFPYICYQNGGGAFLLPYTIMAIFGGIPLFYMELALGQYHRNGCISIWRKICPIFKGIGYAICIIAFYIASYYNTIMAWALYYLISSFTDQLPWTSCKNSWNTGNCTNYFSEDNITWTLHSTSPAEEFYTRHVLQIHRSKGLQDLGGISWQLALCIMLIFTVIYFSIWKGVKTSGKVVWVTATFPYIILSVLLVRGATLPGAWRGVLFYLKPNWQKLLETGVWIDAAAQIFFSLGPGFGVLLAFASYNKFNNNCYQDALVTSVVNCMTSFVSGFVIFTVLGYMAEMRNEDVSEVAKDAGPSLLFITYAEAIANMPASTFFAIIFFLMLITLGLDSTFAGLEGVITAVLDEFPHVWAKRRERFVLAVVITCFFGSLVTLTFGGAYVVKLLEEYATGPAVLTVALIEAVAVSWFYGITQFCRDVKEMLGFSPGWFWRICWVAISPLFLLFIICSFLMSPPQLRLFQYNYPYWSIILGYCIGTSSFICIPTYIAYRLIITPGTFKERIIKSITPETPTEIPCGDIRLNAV

| Ki (SERT) | Ki (D2) | Ki (5-HT2A) | SMILES |
| --- | --- | --- | --- |
| 300 nM | 810 nM | 96 nM | COC(CCCN1CC[C@H]2[C@@H](C1)c1cccc3c1N2CCN3C)c1ccc(F)cc1 (stereo partly drawn) [Ex. 2, (6bR,10aS)-8-[4-(4-Fluoro-phenyl)-4-methoxy-butyl]-3-methyl-2,3,6b,7,8,9,10,10a-octahydro-1H-pyrido[3′,4′:4,5]pyrrolo[1,2,3-de]quinoxaline] |
| 520 nM | 740 nM | 350 nM | CN1CCN2c3c(cccc31)[C@@H]1CN(CCCC(C)(O)c3ccc(F)cc3)CC[C@@H]12 (stereo partly drawn) [Ex. 1, 2-(4-Fluoro-phenyl)-5-((6bR,10aS)-3-methyl-2,3,6b,9,10,10a-hexahydro-1H,7H-pyrido[3′,4′:4,5]pyrrolo[1,2,3-de]quinoxalin-8-yl)-pentan-2-ol] |
